Source: patent US8623893B2, “Pyridino-pyridinone derivatives, preparation and therapeutic use thereof” (SANOFI, priority 2009, dated 2014)
Where a name gives a salt, the structure may show the parent alone.

How the values were obtained:
[1] = molecular target: T1, fusion protein Tel/PDGF-R beta (PDGF beta receptor) in BaF/3 cells (Homo sapiens, UniProt P09619); experiment: Inhibition of proliferation of BaF3 Tel/PDGF cells (tyrosine kinase activity of PDGF-R beta), CellTiter-Glo, 72 h; assay type: cell-based, murine; conditions: 72 h incubation, cellular ATP, read-out: IC50 (concentration that inhibits 50% of the proliferation of Baf3 tel/PDGF cells)
T1 construct: the transmembrane and intracellular part of the PDGF-R beta receptor; expressed in transfected cells; host or cells: murine haematopoietic cell line BaF/3; the other entry of the earlier key: ETV6 (P41212, Transcription factor ETV6)
T1 sequence (P09619 with tags, fused parts or gaps): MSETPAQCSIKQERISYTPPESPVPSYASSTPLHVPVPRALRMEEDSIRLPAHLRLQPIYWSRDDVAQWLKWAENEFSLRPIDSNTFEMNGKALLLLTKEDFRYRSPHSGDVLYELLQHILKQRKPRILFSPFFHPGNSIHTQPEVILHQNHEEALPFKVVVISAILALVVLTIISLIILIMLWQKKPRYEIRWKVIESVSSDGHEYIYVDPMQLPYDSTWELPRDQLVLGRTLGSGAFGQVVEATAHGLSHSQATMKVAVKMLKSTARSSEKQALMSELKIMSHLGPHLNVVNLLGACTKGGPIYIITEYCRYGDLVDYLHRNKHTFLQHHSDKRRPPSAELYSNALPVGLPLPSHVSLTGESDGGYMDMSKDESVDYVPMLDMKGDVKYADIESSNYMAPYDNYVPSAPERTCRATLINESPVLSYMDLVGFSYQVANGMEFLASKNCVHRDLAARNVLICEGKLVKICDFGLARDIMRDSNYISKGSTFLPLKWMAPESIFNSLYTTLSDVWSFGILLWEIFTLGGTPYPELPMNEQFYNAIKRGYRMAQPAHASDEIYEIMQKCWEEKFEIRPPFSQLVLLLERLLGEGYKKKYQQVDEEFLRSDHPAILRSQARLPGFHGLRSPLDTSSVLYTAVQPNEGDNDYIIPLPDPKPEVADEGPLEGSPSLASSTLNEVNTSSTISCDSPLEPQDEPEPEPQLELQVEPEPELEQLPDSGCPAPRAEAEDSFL
Text: (§1) The inhibitory activity with respect to PDGF or Flt-3 receptors is given by the concentration that inhibits 50% of the proliferation activity of cells Baf3 tel/PDGF or MV4-11, respectively.
Measurement of Inhibition of the Tyrosine Kinase Activity of the Receptor to PDGF Beta (PDGF-Rβ) (Baf-3 tel/PDGFRβ):
This test consists of evaluating the effects of the compounds on the tyrosine kinase activity of the PDGF beta receptor.
The inhibitory effect of the compounds according to the invention on the tyrosine kinase activity of the PDGF-R receptor was evaluated on the murine haematopoietic cell line BaF/3 transfected with a plasmid coding for the fusion protein Tel/PDGF-R beta. This fusion protein is found in chronic myeloid myelomonocytic leukaemias (CMML). It comprises the N-terminal part of the transcription factor Tel and the transmembrane and intracellular part of the PDGF-R beta receptor. This fusion protein is present in dimerized form (presence of an oligomerization domain in the N-terminal part of Tel) and accordingly leads to the constitutive activity of the kinase domain of PDGF-R beta.
(§2) The BaF3 Tel/PDGF cells are washed with phosphate buffer and seeded in 96-well plates, at a density of 5.10^4 cells/ml (100 ml per well), in RPMI 1640 containing 10% of FCS, in the presence or absence of the test compounds. After incubation for 72 h, the viable cells are quantified by measurement of cellular ATP using the CellTiter-Glo® kit (Promega, Cat G7571). The cells are treated according to the instructions given by the supplier of the kit and the luminescence is measured with a Luminoskan (Ascent, Labsystem) with the following parameters: measurement: single; integration time: 1000 ms, lag time: 5 s.
It thus appears that the compounds according to the invention have an inhibitory activity on the tyrosine kinase activity of PDGF-R beta. This activity is given by the concentration that inhibits 50% of the proliferation of Baf3 tel/PDGF cells (IC50).

[2] = molecular target: T2, Flt-3 receptor (constitutively active mutant Flt3ITD, MV4-11 cell line) (Homo sapiens, UniProt P36888, INS600HVDFREYEYD); experiment: Inhibition of proliferation of MV4-11 cells (tyrosine kinase activity of Flt-3 receptor), CellTiter-Glo, 72 h; assay type: cell-based; conditions: 72 h incubation, cellular ATP, read-out: IC50 (concentration that inhibits 50% of the proliferation of the MV4-11 cells)
T2 construct: bearing a constitutively active mutant Flt3ITD; endogenous in cells; host or cells: MV4-11
T2 sequence (P36888 with tags, fused parts or gaps INS600HVDFREYEYD): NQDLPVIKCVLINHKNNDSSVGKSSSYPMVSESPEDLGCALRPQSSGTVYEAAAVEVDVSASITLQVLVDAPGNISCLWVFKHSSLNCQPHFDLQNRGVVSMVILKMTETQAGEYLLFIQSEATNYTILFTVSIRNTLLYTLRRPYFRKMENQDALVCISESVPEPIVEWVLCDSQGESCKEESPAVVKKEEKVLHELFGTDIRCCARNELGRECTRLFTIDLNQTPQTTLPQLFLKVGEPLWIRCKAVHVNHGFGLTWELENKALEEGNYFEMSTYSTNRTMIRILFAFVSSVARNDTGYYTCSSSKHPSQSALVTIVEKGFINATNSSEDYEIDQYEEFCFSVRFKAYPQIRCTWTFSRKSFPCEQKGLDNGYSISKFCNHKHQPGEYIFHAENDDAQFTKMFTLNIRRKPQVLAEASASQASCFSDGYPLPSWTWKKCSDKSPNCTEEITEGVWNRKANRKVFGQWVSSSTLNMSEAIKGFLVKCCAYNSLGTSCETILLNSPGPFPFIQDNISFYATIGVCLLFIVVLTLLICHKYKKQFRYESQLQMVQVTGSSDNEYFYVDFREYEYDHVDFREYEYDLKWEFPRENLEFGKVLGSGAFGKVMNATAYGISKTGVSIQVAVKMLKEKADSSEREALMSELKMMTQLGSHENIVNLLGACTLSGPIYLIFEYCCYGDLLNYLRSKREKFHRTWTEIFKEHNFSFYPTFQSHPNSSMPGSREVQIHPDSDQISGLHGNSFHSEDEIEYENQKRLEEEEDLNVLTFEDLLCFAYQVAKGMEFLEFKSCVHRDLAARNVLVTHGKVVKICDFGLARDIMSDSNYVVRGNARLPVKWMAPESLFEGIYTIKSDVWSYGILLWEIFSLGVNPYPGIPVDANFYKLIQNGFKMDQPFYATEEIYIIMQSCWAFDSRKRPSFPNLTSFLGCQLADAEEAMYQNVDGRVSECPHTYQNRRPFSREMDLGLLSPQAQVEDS
Description: as §1
Measurement of Inhibition of the Tyrosine Kinase Activity of the Flt-3 Receptor
The inhibitory effect of the compounds according to the invention on the tyrosine kinase activity of the Flt-3 receptor was evaluated on the MV4-11 cell line, a line established from a leukaemia of the AML type and bearing a constitutively active mutant Flt3ITD. The inhibitory activity is correlated with inhibition of cell growth, according to the protocols described by SPIEKERMANN, K. et al., Blood, 2003, 101, (4) 1494-1504 and O'FARRELL, A.-M. et al., Blood, 2003, 101, (9) 3597-3605.
as §2, with “The MV4-11” for “The BaF3 Tel/PDGF”, “with PBS” for “with phosphate”, “of 1.10^5” for “of 5.10^4”, “(100 μl” for “(100 ml”, “h,” for “h, the”, “measured using” for “measured with”
The inhibitory activity with respect to the Flt-3 receptor is given by the concentration that inhibits 50% of the proliferation of the MV4-11 cells.

SMILES	melting point [°C]	IC50 [1] [nM]	further results
CCn1c(N)c(-c2ncc[nH]2)c(=O)c2ccc(-c3ccc(CC(=O)Nc4ccccn4)cn3)nc21 (as salt: HCl) [Compound 2, 2-{6-[7-Amino-8-ethyl-6-(1H-imidazol-2-yl)-5-oxo-5,8-dihydro-[1,8]naphthyridin-2-yl]-pyridin-3-yl}-N-pyridin-2-yl-acetamide]	200	–	–
CCn1c(N)c(-c2ncc[nH]2)c(=O)c2ccc(-c3ccc(CC(=O)NCC4COCCN4C4CC4)cc3)nc21 (stereo not shown) (as salt: HCl) [Compound 3, 2-{4-[7-Amino-8-ethyl-6-(1H-imidazol-2-yl)-5-oxo-5,8-dihydro-[1,8]naphthyridin-2-yl]-phenyl}-N-(4-cyclopropyl-morpholin-3-ylmethyl)-acetamide]	210	–	–
Nc1c(-c2ncc[nH]2)c(=O)c2ccc(-c3ccc(CC(=O)NCc4ccncc4)cc3)nc2n1CC1CC1 (as salt: TFA) [Compound 51, 2-{4-[7-Amino-8-cyclopropylmethyl-6-(1H-imidazol-2-yl)-5-oxo-5,8-dihydro-[1,8]naphthyridin-2-yl]-phenyl}-N-pyridin-4-ylmethyl-acetamide]	118	–	–
CCn1c(N)c(-c2ncc[nH]2)c(=O)c2ccc(-c3ccc(CC(=O)NCc4ccncc4)nc3)nc21 (as salt: TFA) [Compound 53, 2-{5-[7-Amino-8-ethyl-6-(1H-imidazol-2-yl)-5-oxo-5,8-dihydro-[1,8]naphthyridin-2-yl]-pyridin-2-yl}-N-pyridin-4-ylmethyl-acetamide]	120	–	–
CCn1c(N)c(-c2nc(C)c[nH]2)c(=O)c2ccc(-c3ccc(CC(=O)NCc4ccncc4)cc3)nc21 (as salt: salt) [Compound 50, 2-{4-[7-Amino-8-ethyl-6-(4-methyl-1H-imidazol-2-yl)-5-oxo-5,8-dihydro-[1,8]naphthyridin-2-yl]-phenyl}-N-pyridin-4-ylmethyl-acetamide]	144	–	–
CCn1c(N)c(-c2ncc[nH]2)c(=O)c2ccc(-c3ccc(CC(=O)Nc4ccccn4)cn3)nc21 [Compound 2, 2-{6-[7-Amino-8-ethyl-6-(1H-imidazol-2-yl)-5-oxo-5,8-dihydro-[1,8]naphthyridin-2-yl]-pyridin-3-yl}-N-pyridin-2-yl-acetamide]	–	7.9	–
CCN1CCCC1CNC(=O)Cc1ccc(-c2ccc3c(=O)c(-c4ncc[nH]4)c(N)n(CC)c3n2)c(C)c1 (stereo not shown) [Compound 9, 2-{4-[7-Amino-8-ethyl-6-(1H-imidazol-2-yl)-5-oxo-5,8-dihydro-[1,8]naphthyridin-2-yl]-3-methyl-phenyl}-N-(1-ethyl-pyrrolidin-2-ylmethyl)-acetamide]	–	9.8	–
CCn1c(N)c(-c2ncc[nH]2)c(=O)c2ccc(-c3ccc(CC(=O)Nc4ccc(C)nc4)cc3)nc21 [Compound 10, 2-{4-[7-Amino-8-ethyl-6-(1H-imidazol-2-yl)-5-oxo-5,8-dihydro-[1,8]naphthyridin-2-yl]-phenyl}-N-(6-methyl-pyridin-3-yl)-acetamide]	–	2.5	–
CCn1c(N)c(-c2ncc[nH]2)c(=O)c2ccc(-c3ccc(CC(=O)Nc4nnc(C)s4)cc3)nc21 [Compound 14, 2-{4-[7-Amino-8-ethyl-6-(1H-imidazol-2-yl)-5-oxo-5,8-dihydro-[1,8]naphthyridin-2-yl]-phenyl}-N-(5-methyl-[1,3,4]thiadiazol-2-yl)-acetamide]	–	2.4	–
CCn1c(N)c(-c2ncc[nH]2)c(=O)c2ccc(-c3ccc(CC(=O)Nc4ncc(Cl)s4)cc3)nc21 [Compound 26, 2-{4-[7-Amino-8-ethyl-6-(1H-imidazol-2-yl)-5-oxo-5,8-dihydro-[1,8]naphthyridin-2-yl]-phenyl}-N-(5-chloro-thiazol-2-yl)-acetamide]	–	–	IC50 [2]: 95 nM
CCn1c(N)c(-c2ncc[nH]2)c(=O)c2ccc(-c3ccc(C(C)C(=O)NCc4ccncc4)cc3)nc21 (stereo not shown) [Compound 47, 2-{4-[7-Amino-8-ethyl-6-(1H-imidazol-2-yl)-5-oxo-5,8-dihydro-[1,8]naphthyridin-2-yl]-phenyl}-N-pyridin-4-ylmethyl-propionamide]	186	–	–
CCn1c(N)c(-c2ncc[nH]2)c(=O)c2ccc(-c3ccc(CCCC(=O)NCc4ccncc4)cc3)nc21 [Compound 49, 4-{4-[7-Amino-8-ethyl-6-(1H-imidazol-2-yl)-5-oxo-5,8-dihydro-[1,8]naphthyridin-2-yl]-phenyl}-N-pyridin-4-ylmethyl-butyramide]	240	–	–
Nc1c(-c2ncc[nH]2)c(=O)c2ccc(-c3ccc(CC(=O)NCc4ccncc4)cc3)nc2n1CC1CC1 [Compound 51, 2-{4-[7-Amino-8-cyclopropylmethyl-6-(1H-imidazol-2-yl)-5-oxo-5,8-dihydro-[1,8]naphthyridin-2-yl]-phenyl}-N-pyridin-4-ylmethyl-acetamide]	–	8.9	–
Nc1c(-c2ncc[nH]2)c(=O)c2ccc(-c3ccc(CC(=O)NCc4ccncc4)cc3)nc2n1C1CCCC1 [Compound 52, 2-{4-[7-Amino-8-cyclopentyl-6-(1H-imidazol-2-yl)-5-oxo-5,8-dihydro-[1,8]naphthyridin-2-yl]-phenyl}-N-pyridin-4-ylmethyl-acetamide]	–	13.6	–
CCn1c(N)c(-c2ncc[nH]2)c(=O)c2ccc(-c3ccc(CC(=O)NCCCc4ccccc4)cc3)nc21 [Compound 55, 2-{4-[7-Amino-8-ethyl-6-(1H-imidazol-2-yl)-5-oxo-5,8-dihydro-[1,8]naphthyridin-2-yl]-phenyl}-N-(3-phenyl-propyl)-acetamide]	–	5.9	–
CCN1CCCC1CNC(=O)Cc1ccc(-c2ccc3c(=O)c(-c4ncc[nH]4)c(N)n(CC)c3n2)cc1F (stereo not shown) [Compound 56, 2-{4-[7-Amino-8-ethyl-6-(1H-imidazol-2-yl)-5-oxo-5,8-dihydro-[1,8]naphthyridin-2-yl]-2-fluoro-phenyl}-N-(1-ethyl-pyrrolidin-2-ylmethyl)-acetamide]	100	–	–
